Measurements: patent publication US20120149572A1, “USE OF AGROCHEMICAL MIXTURES FOR INCREASING THE HEALTH OF A PLANT” (BASF SE, priority 2009, published 2012)

System: cotyledons
Assay: Growth of excised cucumber cotyledons (fresh biomass) in treatment solution
Assay type: in vivo, Cucumbers
Conditions: for Mean cotyledon biomass: 3 days in the dark at 25° C., 20 cotyledons per treatment; for Observed efficacy (%): % biomass increase compared to 0.5% DMSO control; for growth stimulation of the cotyledons: applied alone
Method: The effect of dicamba as an example for compound (I), pyraclostrobin as an example for compound (II) and the respective mixture comprising both compounds on the growth of cotyledons, as one indicator of a plant's health, was evaluated. Cucumbers were sown and germinated in the dark at 25° C. for 4 days. Subsequently, 20 cotyledons per treatment were cut and placed in a Petri dish containing 20 ml of the treatment solution. Control cotyledons were treated with the 0.5% DMSO solution. Following the incubation in the dark at 25° C. for 3 days the cotyledons were weight and the fresh biomass recorded (table 1).
The efficacy of the tested compounds was calculated as % of biomass increase compared to the control:
E=(a/b−1)*100 • a corresponds to the biomass (mg) of the treated cotyledons after incubation; • b corresponds to the biomass (mg) of untreated cotyledons after incubation (control).
The expected efficacies of the combinations of the active ingredients were estimated using Colby's formula (Colby, S. R., Calculating synergistic and antagonistic responses of herbicide combinations, Weeds, 15, pp. 20-22, 1967) and compared with the observed efficacies.
Colby's formula: E=x+y−x*y/100 • E expected efficacy, expressed in % of the untreated control, when using the mixture comprising the compounds A and B at the concentrations a and b; • x efficacy, expressed in % of the untreated control, when using compound A at the concentration a; • y efficacy, expressed in % of the untreated control, when using compound B at the concentration b.

Row | SMILES | Mean cotyledon biomass (1.25 ppm in 0.5% DMSO) [mg] | Observed efficacy (%) (1.25 ppm) | growth stimulation of the cotyledons | Mean cotyledon biomass (2 ppm in 0.5% DMSO) [mg] | Observed efficacy (%) (2 ppm)
1 | COc1c(Cl)ccc(Cl)c1C(=O)O [Dicamba, dicamba] | 69.9 | −0.8 | no growth stimulation |  | 
2 | COC(=O)N(OC)c1ccccc1COc1ccn(-c2ccc(Cl)cc2)n1 [Pyraclostrobin, pyraclostrobin] |  |  | no growth stimulation | 67.7 | −3.9
